Reference: patent publication US20240174603A1 (Rappta Therapeutics Oy, priority 2021, published 2024)

system: HCC1937 cells; assay: HCC1937 cell viability assay (MTS); assay type: cell-based; details: Homo sapiens; HCC1937 cell line, 48 hours, MTS assay (footnote a)
Experimental: HCC1937 cells are plated in a 96 well plate format at a density of 10,000 cells per well. After incubation overnight, cells are treated with a compound (e.g., compound 263) at following concentrations: 80, 40, 20, 10, 5, 2.5, 1.25 μM. Compound concentrations are prepared in RPMI via serial dilutions from a starting stock of 80 mM. 48 hours after compound treatment, cell viability is assessed using the Promega CellTiter 96 aqueous one proliferation assay (Promega G3582, MTS assay) according to manufacturer's protocol.
The cell viability data was analyzed with GraphPad Prism software. The values were log transformed and analyzed with non-linear regression (curve-fit) using log(inhibitor) vs. response-variable slope (four parameters) and constraining the bottom to equal zero. Unless otherwise indicated, the GI50 values provided in Table 113 correspond to the LNCaP cell viability assays.

GI50 [µM] | Compound
75.7 | O=S(=O)(NCC1(c2ccccc2)CCCN1)c1ccc(OC(F)(F)F)cc1 (stereo not drawn) [Compound 263, N-((2-phenylpyrrolidin-2-yl)methyl)-4-(trifluoromethoxy)benzenesulfonamide]

system: LNCaP cells; assay: LNCaP cell viability assay (MTS); assay type: cell-based; details: Homo sapiens, LNCaP cell line, 48 hours
Method in brief: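 GI50 derived by nonlinear four-parameter curve fitting (bottom fixed at zero) of MTS viability data. Prostate LNCaP cells seeded at 5000/well were given compound doses from 1 to 80 µM one day after plating and assayed after 48 h of exposure.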

Compound | GI50 [µM]
O=S(=O)(NC(CN1CCCC1)c1ccc(Cl)cc1)c1ccc(OC(F)(F)F)cc1 (stereo not drawn) [Compound 181, N-(1-(4-chlorophenyl)-2-(pyrrolidin-1-yl)ethyl)-4-(trifluoromethoxy)benzenesulfonamide] | 51.4

same assay, conditions: Homo sapiens, LNCaP, 48 h, LNCaP cell line

Compound | GI50 [µM]
CN(C)CC(c1ccc(Cl)c(Cl)c1)N(C)S(=O)(=O)c1ccc(OC(F)(F)F)cc1 (stereo not drawn) [Compound 250, N-(1-(3,4-dichlorophenyl)-2-(dimethylamino)ethyl)-N-methyl-4-(trifluoromethoxy)benzenesulfonamide] | 39.6
CN(C)CC(NS(=O)(=O)c1ccc(-c2ccccn2)cc1)c1ccc(Cl)c(Cl)c1 (stereo not drawn) [Compound 218, N-(1-(3,4-dichlorophenyl)-2-(dimethylamino)ethyl)-4-(pyridin-2-yl)benzenesulfonamide] | 43.7
CN(C)CC(NS(=O)(=O)c1ccc(-c2ccccc2)cc1)c1ccc(Cl)c(Cl)c1 (stereo not drawn) [Compound 143, N-(1-(3,4-dichlorophenyl)-2-(dimethylamino)ethyl)-[1,1′-biphenyl]-4-sulfonamide] | 11.2
CC1CCCC(CNS(=O)(=O)c2ccc(OC(F)(F)F)cc2)(N(C)C)C1 (stereo not drawn) [Compound 99, N-((1-(dimethylamino)-3-methylcyclohexyl)methyl)-4-(trifluoromethoxy)benzenesulfonamide] | 45
COc1ccc(OC)c(CCCNS(=O)(=O)c2ccc(OC(F)(F)F)cc2)c1 [Compound 27, N-(3-(2,5-dimethoxyphenyl)propyl)-4-(trifluoromethoxy)benzenesulfonamide] | 40.2
CN(C)CC(NS(=O)(=O)c1ccc(Oc2ccccc2)cc1)c1ccc(Cl)cc1 (stereo not drawn) [Compound 190, N-(1-(4-chlorophenyl)-2-(dimethylamino)ethyl)-4-phenoxybenzenesulfonamide] | 11.8
CC(NS(=O)(=O)c1ccc(OC(F)(F)F)cc1)c1cc(F)ccc1N1CCC(O)CC1 (stereo not drawn) [Compound 21, N-(1-(5-fluoro-2-(4-hydroxypiperidin-1-yl)phenyl)ethyl)-4-(trifluoromethoxy)benzenesulfonamide] | 46.8
O=S(=O)(NCC1(c2cccc(C(F)(F)F)c2)CCCC1)c1ccc(OC(F)(F)F)cc1 [Compound 262, 4-(trifluoromethoxy)-N-((1-(3-(trifluoromethyl)phenyl)cyclopentyl)methyl)benzenesulfonamide] | 63.1
CN(C)CC(NS(=O)(=O)c1ccc(C2CCCCO2)cc1)c1ccc(Cl)c(Cl)c1 (stereo not drawn) [Compound 239, N-(1-(3,4-dichlorophenyl)-2-(dimethylamino)ethyl)-4-(tetrahydro-2H-pyran-2-yl)benzenesulfonamide] | 28.2
COC(=O)C(Cc1ccc(O)c(F)c1)NS(=O)(=O)c1ccc(OC(F)(F)F)cc1 (stereo not drawn) [Compound 112, Methyl 3-(3-fluoro-4-hydroxyphenyl)-2-((4-(trifluoromethoxy)phenyl)sulfonamido)propanoate] | 38
CC(NS(=O)(=O)c1ccc(OC(F)(F)F)cc1)C(NC(=O)OC(C)(C)C)c1ccccc1 (stereo not drawn) [Compound 105, Tert-butyl (1-phenyl-2-((4-(trifluoromethoxy)phenyl)sulfonamido)propyl)carbamate] | 37
CC1(C)CC1(CNS(=O)(=O)c1ccc(OC(F)(F)F)cc1)c1ccc(F)cc1F (stereo not drawn) [Compound 84, N-((1-(2,4-difluorophenyl)-2,2-dimethylcyclopropyl)methyl)-4-(trifluoromethoxy)benzenesulfonamide] | 18

Second part, the compound after the results:

GI50 [µM] | Compound
50.9 | COC(c1ccccc1Cl)C(C)NS(=O)(=O)c1ccc(OC(F)(F)F)cc1 (stereo not drawn) [Compound 20, N-(1-(2-chlorophenyl)-1-methoxypropan-2-yl)-4-(trifluoromethoxy)benzenesulfonamide]
45.9 | CC1CCN(C(CNS(=O)(=O)c2ccc(OC(F)(F)F)cc2)c2ccco2)CC1 (stereo not drawn) [Compound 31, N-(2-(furan-2-yl)-2-(4-methylpiperidin-1-yl)ethyl)-4-(trifluoromethoxy)benzenesulfonamide]
24 | COc1ccc([C@@H]2[C@@H](CNS(=O)(=O)c3ccc(OC(F)(F)F)cc3)CCN2C)cc1 (racemic) [Compound 106, Rac-N-(((2S,3R)-2-(4-methoxyphenyl)-1-methylpyrrolidin-3-yl)methyl)-4-(trifluoromethoxy)benzenesulfonamide]
37.3 | O=S(=O)(NC(c1cccc(Cl)c1)C1CCCC1)c1ccc(OC(F)(F)F)cc1 (stereo not drawn) [Compound 41, N-((3-chlorophenyl)(cyclopentyl)methyl)-4-(trifluoromethoxy)benzenesulfonamide]
12.2 | CN(C)CC(NS(=O)(=O)c1ccc(Oc2ccc(C(F)(F)F)cc2)cc1)c1ccc(Cl)cc1 (stereo not drawn) [Compound 194, N-(1-(4-chlorophenyl)-2-(dimethylamino)ethyl)-4-(4-(trifluoromethyl)phenoxy)benzenesulfonamide]
70 | O=S(=O)(NCc1cc(Cl)ccc1OC(F)F)c1ccc(OC(F)(F)F)cc1 [Compound 62, N-(5-chloro-2-(difluoromethoxy)benzyl)-4-(trifluoromethoxy)benzenesulfonamide]
30 | Cc1ccc(CNS(=O)(=O)c2ccc(OC(F)(F)F)cc2)c(OCC2CC2)c1 [Compound 75, N-(2-(cyclopropylmethoxy)-4-methylbenzyl)-4-(trifluoromethoxy)benzenesulfonamide]
49 | Cc1ccccc1S(=O)(=O)NC(CN(C)C)c1ccc(Cl)c(Cl)c1 (stereo not drawn) [Compound 131, N-(1-(3,4-dichlorophenyl)-2-(dimethylamino)ethyl)-2-methylbenzenesulfonamide]
24.9 | CN(C)CC(NS(=O)(=O)c1ccc2c(c1)OC(F)(F)O2)c1ccc(Cl)c(Cl)c1 (stereo not drawn) [Compound 156, N-(1-(3,4-dichlorophenyl)-2-(dimethylamino)ethyl)-2,2-difluorobenzo[d][1,3]dioxole-5-sulfonamide]
57.2 | COC(=O)[C@H](Cc1ccc(Cl)c(Cl)c1)NS(=O)(=O)c1ccc(OC(F)(F)F)cc1 [Compound 40, Methyl (S)-3-(3,4-dichlorophenyl)-2-((4-(trifluoromethoxy)phenyl)sulfonamido)propanoate]
33.6 | O=S(=O)(NCC1(c2ccccc2)CCNCC1)c1ccc(OC(F)(F)F)cc1 [Compound 260, N-((4-phenylpiperidin-4-yl)methyl)-4-(trifluoromethoxy)benzenesulfonamide]
35.3 | COC(=O)C[C@H](NS(=O)(=O)c1ccc(OC(F)(F)F)cc1)c1cc(Cl)cc(Cl)c1 [Compound 39, Methyl (S)-3-(3,5-dichlorophenyl)-3-((4-(trifluoromethoxy)phenyl)sulfonamido)propanoate]
66.5 | COC(=O)CC(NS(=O)(=O)c1ccc(OC(F)(F)F)cc1)c1cccc(Br)c1 (stereo not drawn) [Compound 38, Methyl 3-(3-bromophenyl)-3-((4-(trifluoromethoxy)phenyl)sulfonamido)propanoate]
